Results reported in patent US20150164895A1, “DETERMINING SENSITIVITY OF CELLS TO B-RAF INHIBITOR TREATMENT BY DETECTING KRAS MUTATION AND RTK EXPRESSION LEVELS” (GENENTECH, INC., priority 2009, published 2015).
Values joined by “and” are separate entries in the source; they are usually repeats but may differ in a detail not shown here. Equal entries are not always repeated.

Tests used:
Format in all cases: in vivo, mice
[1] = tested on: lung tumor xenografts; assay: Experiment H327: growth in lung tumor xenografts after dosing with B-RAF inhibitor; details: for Relative tumor volume / Absolute tumor volume: (a*b*b)/2: individual tumor; for Absolute body weight / Relative body weight / Survival time: individual animal
Source text: FIGS. 10-18 depict growth in lung tumor xenografts after dosing with GDC-0879.
The data are shown below, and in FIGS. 10-14 for Experiment H331 and FIGS. 15-18 for Experiment H327.

[2] = tested on: ERK1/2 phosphorylation in BRAF^V600E primary human xenograft tumors; assay: Pharmacodynamic ERK1/2 phosphorylation immunoblot in primary human xenograft tumors; details: 100 mg/kg, 1 or 8 h following the last dose (days 21-24)
Experimental: In time course pharmacodynamic studies, mice were treated with 100 mg/kg GDC-0879 and scarified at 1 or 8 h following the last dose (days 21-24). Immunoblots of phosphorylated and total ERK1/2 are shown. […] Total ERK1/2 expression was examined in all samples as a loading control.

[3] = tested on: patient-derived melanoma and non-small cell lung cancer tumor models; assay: Primary human tumor xenograft models, time to tumor doubling; details: 100 mg/kg daily
Experimental: FIG. 8A depicts the duration and extent of BRAF pathway inhibition determines B-Raf inhibitor, GDC-0879 efficacy in primary human tumor xenograft models. A Kaplan-Meier plot showing time to tumor doubling for patient-derived melanoma and non-small cell lung cancer tumor models treated daily with 100 mg/kg GDC-0879 or vehicle. Genotypes for BRAF, N-ras and K-ras are indicated.
The Ras GTPase family controls numerous downstream signaling cascades in response to signals that regulate cellular processes including proliferation and survival. While Ras is one of the most prevalent targets for gain-of-function mutations in human tumors, questions remain regarding how the Ras effector pathway functions in mutant K-ras-driven tumorigenesis. Since an important function of K-ras involves B-Raf activation within the canonical MAPK signaling pathway, we initiated a study to determine B-Raf's role in the context of mutant K-ras-driven tumor promotion and maintenance. […] See, FIG. 8A, showing time to tumor doubling.

[4] = H327-2, LXFA 1041/9N4, 100 mg/kg/day po Days 0-20, study day 17, group median n 10
[5] = H327-2, LXFA 1041/9N4, 100 mg/kg/day po Days 0-20, study day 17, group median n 20
[6] = H327-2, LXFA 1041/9N4, 100 mg/kg/day po Days 0-20, study day 17, listed as G-026887
[7] = H327-2, LXFA 1041/9N4, 100 mg/kg/day po Days 0-20, study day 20, group median n 10
[8] = H327-2, LXFA 1041/9N4, 100 mg/kg/day po Days 0-20, study day 20, group median n 20
[9] = H327-2, LXFA 1041/9N4, 100 mg/kg/day po Days 0-20, study day 20, listed as G-026887
[10] = H327-5, LXFA 1041/9N4, 100 mg/kg/day po Day 0, study day 0, group median n 6
[11] = H327-5, LXFA 1041/9N4, 100 mg/kg/day po Day 0, study day 0, listed as G-026887
[12] = H327-6, LXFA 1041/9N4, 100 mg/kg/day po Day 0, study day 0, group median n 3
[13] = H327-6, LXFA 1041/9N4, 100 mg/kg/day po Day 0, study day 0, listed as G-026887

Which Relative tumor volume ([1]; H327-2, LXFA 1041/9N4, 100 mg/kg/day po Days 0-20, study day 14, listed as G-026887) does the source give for OCCn1cc(-c2ccc3c(c2)CC/C3=N\O)c(-c2ccncc2)n1 [GDC-0879, 2-{4-[(1E)-1-(hydroxyimino)-2,3-dihydro-1H-inden-5-yl]-3-(pyridine-4-yl)-1H-pyrazol-1-yl}ethan-1-ol] here?
The Relative tumor volume was 964.1% and 811.9% and 593.5% and 515.7% and 743.1% and 697.3% and 1076.6% and 1151.3% and 503.3% and 616.5% and 626.8% and 523.7% and 733.4% and 523.3%.

What about the “Absolute body weight, Median” value [1, 4] of the same compound?
Its value is 25.7 g.

What about the “Relative body weight, Median” value [1, 4] of the same compound?
Its value is 102.7%.

What about the “Absolute tumor volume: (a*b*b)/2, Median” value [1, 5] of the same compound?
The value was 789.5 mm3.

And the “Relative tumor volume, Median” value [1, 5]?
Its value is 900.4%.

What about the Absolute body weight [1, 6] of the same compound?
The Absolute body weight was 24.8 g and 30.3 g and 25.1 g and 25.0 g and 24.7 g and 26.2 g and 31.9 g and 31.1 g and 26.4 g and 22.7 g.

What about the Relative body weight [1, 6] of the same compound?
Its Relative body weight is 97.6% and 105.9% and 102.4% and 102.0% and 102.9% and 104.4% and 107.0% and 98.7% and 105.6% and 96.2%.

And the Relative tumor volume [1, 6]?
Its Relative tumor volume is 1372.2% and 1073.6% and 869.4% and 770.2% and 1242.1% and 1093.2% and 1915.9% and 1727.1% and 932.7% and 931.4% and 937.2% and 831.6% and 856.0% and 746.4%.

And the “Absolute body weight, Median” value [1, 7]?
The value was 26.9 g.

What about the “Relative body weight, Median” value [1, 7] of the same compound?
Its value is 108.0%.

And the “Absolute tumor volume: (a*b*b)/2, Median” value [1, 8]?
The value was 928.6 mm3.

What about the “Relative tumor volume, Median” value [1, 8] of the same compound?
Its value is 1023.2%.

What about the Absolute body weight [1, 9] of the same compound?
The Absolute body weight was 25.4 g and 31.4 g and 25.8 g and 26.3 g and 26.1 g and 28.3 g and 33.2 g and 32.4 g and 27.4 g and 23.1 g.

What about the Relative body weight [1, 9] of the same compound?
Its Relative body weight is 100.0% and 109.8% and 105.3% and 107.3% and 108.8% and 112.7% and 111.4% and 102.9% and 109.6% and 97.9%.

And the Relative tumor volume [1, 9]?
Its Relative tumor volume is 1795.5% and 1109.8% and 1056.9% and 872.2% and 1346.4% and 1155.4% and 2275.4% and 1830.4% and 1070.4% and 1264.0% and 971.2% and 860.0% and 980.4% and 989.5%.

And the “Absolute tumor volume: (a*b*b)/2” value ([1]; H327-2, LXFA 1041/9N4 Lung, adeno, 100 mg/kg/day po Days 0-20, study day 0, listed as G-026887, 100 mg/kg/day)?
Its value is 47.6 mm3 and 100.9 mm3 and 90.8 mm3 (2×) and 111.6 mm3 and 68.8 mm3 and 57.6 mm3 and 62.5 mm3 and 84.7 mm3 and 50.6 mm3 and 210.8 mm3 and 117.2 mm3 and 139.4 mm3.

What about the “Absolute tumor volume: (a*b*b)/2” value ([1]; H327-2, LXFA 1041/9N4 Lung, adeno, 100 mg/kg/day po Days 0-20, study day 3, listed as G-026887, 100 mg/kg/day) of the same compound?
The value was 92.3 mm3 and 210.8 mm3 and 140.4 mm3 and 209.5 mm3 and 139.3 mm3 and 90.8 mm3 and 68.8 mm3 and 145.4 mm3 and 117.0 mm3 and 98.3 mm3 and 292.8 mm3 and 201.6 mm3 and 249.4 mm3.

What about the “Absolute tumor volume: (a*b*b)/2” value ([1]; H327-2, LXFA 1041/9N4 Lung, adeno, 100 mg/kg/day po Days 0-20, study day 7, listed as G-026887, 100 mg/kg/day) of the same compound?
The value was 215.1 mm3 and 332.8 mm3 and 272.8 mm3 and 291.2 mm3 and 258.8 mm3 and 147.9 mm3 and 212.5 mm3 and 294.4 mm3 and 197.0 mm3 and 126.0 mm3 and 470.6 mm3 and 344.4 mm3 and 392.9 mm3.

What about the “Absolute tumor volume: (a*b*b)/2” value ([1]; H327-2, LXFA 1041/9N4 Lung, adeno, 100 mg/kg/day po Days 0-20, study day 10, listed as G-026887, 100 mg/kg/day) of the same compound?
Its value is 279.3 mm3 and 491.9 mm3 and 461.7 mm3 and 420.1 mm3 and 284.6 mm3 and 237.2 mm3 and 326.4 mm3 and 510.3 mm3 and 274.4 mm3 and 173.2 mm3 and 701.8 mm3 and 451.3 mm3 and 546.2 mm3.

What about the “Absolute tumor volume: (a*b*b)/2” value ([1]; H327-2, LXFA 1041/9N4 Lung, adeno, 100 mg/kg/day po Days 0-20, study day 14, listed as G-026887, 100 mg/kg/day) of the same compound?
Its value is 458.8 mm3 and 819.3 mm3 and 538.6 mm3 and 575.5 mm3 and 510.9 mm3 and 401.6 mm3 and 672.9 mm3 and 1044.8 mm3 and 426.3 mm3 and 312.1 mm3 and 1321.4 mm3 and 613.8 mm3 and 1022.5 mm3.

And the “Absolute tumor volume: (a*b*b)/2” value ([1]; H327-2, LXFA 1041/9N4 Lung, adeno, 100 mg/kg/day po Days 0-20, study day 17, listed as G-026887, 100 mg/kg/day)?
The value was 653.0 mm3 and 1083.4 mm3 and 789.0 mm3 and 859.6 mm3 and 853.9 mm3 and 629.7 mm3 and 1197.5 mm3 and 1567.4 mm3 and 790.0 mm3 and 471.5 mm3 and 1975.9 mm3 and 974.7 mm3 and 1193.5 mm3.

What about the “Absolute tumor volume: (a*b*b)/2” value ([1]; H327-2, LXFA 1041/9N4 Lung, adeno, 100 mg/kg/day po Days 0-20, study day 20, listed as G-026887, 100 mg/kg/day) of the same compound?
Its value is 854.4 mm3 and 1120.0 mm3 and 959.2 mm3 and 973.4 mm3 and 925.7 mm3 and 665.5 mm3 and 1422.1 mm3 and 1661.1 mm3 and 906.6 mm3 and 639.9 mm3 and 2047.5 mm3 and 1008.0 mm3 and 1366.9 mm3.

And the Survival time ([1]; H327-5, LXFA 1041/9N4, 100 mg/kg/day po Day 0)?
The Survival time was greater than 0 days.

And the “Absolute body weight, Median” value [1, 10]?
The value was 25.6 g.

And the “Absolute tumor volume: (a*b*b)/2, Median” value [1, 10]?
Its value is 248.1 mm3.

And the “Relative body weight, Median” value [1, 10]?
Its value is 100.0%.

And the “Relative tumor volume, Median” value [1, 10]?
The value was 100.0%.

And the Relative body weight ([1]; H327-5, LXFA 1041/9N4, 100 mg/kg/day po Day 0, study day 0)?
Its Relative body weight is 100.0%.

What about the Absolute body weight [1, 11] of the same compound?
Its Absolute body weight is 26.3 g and 23.5 g and 24.9 g and 31.1 g and 20.8 g and 27.4 g.

And the “Absolute tumor volume: (a*b*b)/2” value [1, 11]?
The value was 256.0 mm3 and 219.0 mm3 and 423.2 mm3 and 441.1 mm3 and 166.5 mm3 and 240.1 mm3.

What about the Survival time ([1]; H327-6, LXFA 1041/9N4, 100 mg/kg/day po Day 0) of the same compound?
Its Survival time is greater than 0 days.

What about the “Absolute body weight, Median” value [1, 12] of the same compound?
Its value is 27.2 g.

What about the “Absolute tumor volume: (a*b*b)/2, Median” value [1, 12] of the same compound?
Its value is 267.7 mm3.

And the Absolute body weight [1, 13]?
The Absolute body weight was 27.9 g and 27.2 g and 25.2 g.

What about the “Absolute tumor volume: (a*b*b)/2” value [1, 13] of the same compound?
Its value is 409.1 mm3 and 250.5 mm3 and 267.7 mm3.

What about the “ERK1/2 phosphorylation in tumors” value [2] of the same compound?
The value was “down-regulated ERK1/2 phosphorylation”.

What about the “time to tumor doubling / tumor growth” value ([3]; K-ras-mutant non-small cell lung tumors such as LXFA 1041 and LXFA 983) of the same compound?
The value was “significantly accelerated growth”.

And the “time to tumor doubling / tumor progression” value ([3]; MEXF 989, MEXF 276, and MEXF 355 tumors)?
Its value is “statistically significant (P<0.05) delay in tumor progression”.
